Test results published in patent EP1222921B1, “Pharmaceutical compositions of tizoxanide and/or nitazoxanide” (Romark Laboratories, L.C., priority 1997, dated 1998).
≈ marks a conversion by molar mass, not a printed value. Where “and” joins values, the source holds several entries; their conditions need not be identical. Equal values may be shown once.

Legend:
[1] = system: Fasciola hepatica; assay: In vitro culture of mature flukes
Experimental: The in vitro efficacy of nitazoxanide and desacetyl-nitazoxanide was tested against Fasciola hepatica. Mature F. hepatica were recovered from the bile ducts of 3 calf livers condemned due to fasciolosis at the Louisiana Veterinary Medical Diagnostic Laboratory at the Hardy's Meat […], Bunkie, LA. Flukes were washed in sterile saline for 1 hour and transferred to sterile saline or RPMI (pH 7.4) for an additional 3 hours. Flukes were then held in sterile RPMI-rabbit serum (50:50 v/v) or sterile RPMI (pH 7.4) overnight at 37°C with 5% CO2. In vitro culture (37°C, 5% CO2) was done according to a modification of the method of Ibarra and Jenkins ([…]. 70:655-661, 1984). […] Only flukes that had normal activity and morphology were used. […] Two control flukes were included in each replicate, […] and one in unmedicated culture media […]. Flukes were examined for the effects of drug treatment as evidenced by death, motility disturbances or morpholgic changes as compared to untreated control flukes, using a backlighted panel and a lighted 3X magnifying lens.

[2] = system: C. parvum oocysts; assay: Intact C. parvum oocyst assay (Example II), immunofluorescence; format: cell-based, Cryptosporidium parvum
Experimental: Nitazoxanide was dissolved in sterile dimethylsulfoxide (DMSO) and tested against intact C. parvum oocysts infected cell monolayers at concentrations of 100 µg/ml, 10 µg/ml/l µg/ml and 0.1 µg/ml. A second trail was performed which tested nitazoxanide at the additional concentrations of 20, 2, 0.2 and 0.02 µg/ml. These concentrations were achieved by serial dilutions with complete DMEM medium to yield a final DMSO concentration of 0.5%. The medium control also contacted 0.5% DMSO.
The experiment used a cell culture of MDBKF5D2 Cells grown in 7 mm chambers, and as Cryptosporidium parvum: GCH1 oocysts, 5 X 10^4 per well, and was conducted to compare paromomycin (positive control) against nitazoxanide (experimental drug). Materials included Immune Anti-Cryptosporidium parvum Sporozoite Rabbit Serum (0.1%) and Fluorescein-Conjugated Goat Anti-Rabbit Antibody (1%).
5 x 104 C. parvum oocysts per well were incubated in nitazoxanide (100, 20, 10, 2, 1, 0.2, 0.1 and 0.02 µg/ml) at 37°C (8% CO2) on confluent MDBKF5D2 cell monolayers. The level of infection in each well was determined and analyzed by an immunofluorescence assay at 24 to 48 hours. Percent Inhibition was calculated by subtracting the mean parasite count/10 field in the drug test wells from the mean parasite count/10 fields in the medium control (no drug), dividing by the medium control count, and then multiplying by 100. (Medium control count - Drug test count)/(Medium control count)x 100 [formula]

[3] = system: MDBKF5D2 cell monolayers; assay: Toxicity testing assay (Example III), MTS/PMS; format: cell-based; settings: cattle, 48 h
Experimental: 200µl of medium containing nitazoxanide solution at the pre-mentioned concentrations and the proper controls were introduced into two wells of a 96 well plate containing confluent MDBKFD2 cell monolayers and two wells without monolayers. […] The plate was returned to the incubator in the dark to develop for 2 hours. At 2 hours, 100 µl of each supernatant was transferred to a new microtiter plate and read in the ELISA reader at 490 nm. Results were recorded and analyzed. […] (OD medium - OD drug x 100)/(OD medium) [formula] […]

[4] = system: immature (4-week/old) F. gigantica; assay: Experimentally infected rabbits, immature flukes; format: in vivo, Fasciola gigantica
Experimental: Nitazoxanide was tested against immature and mature Fasciola gigantica in experimentally infected rabbits. Fasciola gigantica encysted metacercariae (EMC) were collected on cellophane sheet after 28-35 days from infection of L. calludi snails by Fasciola gigantica miracidium using the technique described by […] snails were exposed daily to artificial light, for 30 minutes, in clean dechlorinated tap water. The resulting encysted […]) were preserved at 4°C in a refrigerator for 5 to 8 days under the surface of water until they were used to infect experimental animals. Forty (40) Boscat rabbits, weighting 1.5 to 2 kg each, were included in the study and allocated to two treatment groups of 20 animals. Animals from Group 1 were orally infected with 35-40 encysted […] wrapped in a leaf of lettuce and pushed on the root of the tongue of the animals. The mouths of the animals were held closed by hand until the encysted metacercariae were swallowed. These Group 1 animals were used to test the efficacy of nitazoxanide against immature stages (4-5 weeks old) of Fasciola […]. Ten animals from Group 1 received 35 mg of nitazoxanide, morning and evening, for 7 consecutive days 4 weeks after their infection at the immature stage of the parasite cycle. The ten remaining animals in Group 1 were kept as untreated controls. All animals were fed with dry ration until the end of the experiment. Seven days after administration of the last dose of nitazoxanide, all rabbits from each group were sacrificed. The surface of the liver was examined for the presence of necrotic migrating furrows especially at the immature stage of the parasite cycle. These necrotic areas were examined using two surgical needles in order to extract the juvenile migrating flukes according to the technique described by El-Bahy. The livers were sliced in small pieces especially around the migrating furrows and macerated under a microscope in order to extract the existing flukes. The abdominal cavity and the visceral surfaces were washed with warm water. The water was then collected, sieved and examined for identification of juvenile flukes. All the collected parasites as well as parts of them were counted in both treated and untreated animal in both Groups 1 and 2. […] The efficacy of nitazoxanide was calculated by using the formula indicated below: % efficacy(a - b)/(a)x 100 [formula] Where: • a = the number of flukes recovered from feces in the control animals • b = the number of flukes recovered from feces in the treated animals.

[5] = system: RH strain of Toxoplasma gondii; assay: Toxoplasma gondii growth in MRC5 fibroblast cultures, ELISA; format: cell-based
[6] = mean of 10 rabbits, 70 mg/day for 7 consecutive days

CC(=O)Oc1ccccc1C(=O)Nc1ncc([N+](=O)[O-])s1 [Nitazoxanide, 2-(acetolyloxy)-N-(5-nitro 2-thiazoly) benzamide]
effects on flukes (death, motility disturbances) ([1]; 1 µg treatment): one fluke died by hour 16, three by hour 41 and five by hour 74; 3 flukes remained active at hour 91 and one fluke had activity at hour 115
effects on flukes (death, motility disturbances) ([1]; 3 µg treatment): By 23 hours, only 2 sluggish flukes in the 3 µg group remained alive; these were dead by hour 41
effects on flukes (death, motility disturbances) ([1]; 5 µg treatment): only 3 flukes were active at hour 6 and none were active at 16 hours
effects on flukes (death, motility disturbances) ([1]; 10 µg treatment): only one fluke survived to 16 hours
effects on flukes (death, motility disturbances) ([1]; 25 µg treatment): all flukes were dead or moribund except one fluke at 1 hour in the 25 µg group it was dead at 3 hour
effects on flukes (death, motility disturbances) ([1]; 50 µg treatment): all flukes were dead or moribund
effects on flukes (death, motility disturbances) ([1]; 100 µg treatment): all flukes were dead or moribund
inhibition at 0.1 µg/mL ([2]; Cryptosporidium parvum, Trial 1: 24 hrs, 0.1µg/ml, read-out: Percent Inhibition): 51.8%
inhibition at 1 µg/mL ([2]; Cryptosporidium parvum, Trial 1: 24 hrs, 1µg/ml, read-out: Percent Inhibition): 77.2%
inhibition at 10 µg/mL ([2]; Cryptosporidium parvum, Trial 1: 24 hrs, 10µg/ml, read-out: Percent Inhibition): 94.4%
inhibition at 0.02 µg/mL ([2]; Cryptosporidium parvum, Trial 2: 48 hrs, 0.02µg/ml, read-out: Percent Inhibition): 53.3%
inhibition at 0.2 µg/mL ([2]; Cryptosporidium parvum, Trial 2: 48 hrs, 0.2µg/ml, read-out: Percent Inhibition): 54.3%
inhibition at 2 µg/mL ([2]; Cryptosporidium parvum, Trial 2: 48 hrs, 2µg/ml, read-out: Percent Inhibition): 94.9%
inhibition at 20 µg/mL ([2]; Cryptosporidium parvum, Trial 2: 48 hrs, 20µg/ml, read-out: Percent Inhibition): 96.9%
Mean (+ SD) Parasite Count/10 Fields ([2]; Trial 1: 24 hrs, 0.1µg/ml): 474.5(±29.5)
Mean (+ SD) Parasite Count/10 Fields ([2]; Trial 1: 24 hrs, 1µg/ml): 224.5(±28.5)
Mean (+ SD) Parasite Count/10 Fields ([2]; Trial 1: 24 hrs, 10µg/ml): 55.5(±13.5)
Mean (+ SD) Parasite Count/10 Fields ([2]; Trial 2: 48 hrs, 0.02µg/ml): 1041(+191.46)
Mean (+ SD) Parasite Count/10 Fields ([2]; Trial 2: 48 hrs, 0.2µg/ml): 1020(+158.48)
Mean (+ SD) Parasite Count/10 Fields ([2]; Trial 2: 48 hrs, 2µg/ml): 113.75(+21.36)
Mean (+ SD) Parasite Count/10 Fields ([2]; Trial 2: 48 hrs, 20µg/ml): 68.75(+13.77)
%Tox - Percent toxicity to cells by the drug ([3]; 0.01 µg/ml): 10.12%
Tox/OD ([3]; 0.01 µg/ml): 1.617
%Tox - Percent toxicity to cells by the drug ([3]; 0.1 µg/ml): ≤0%
Tox/OD ([3]; 0.1 µg/ml): 1.878
%Tox - Percent toxicity to cells by the drug ([3]; 1 µg/ml): 10.09%
Tox/OD ([3]; 1 µg/ml): 1.618
%Tox - Percent toxicity to cells by the drug ([3]; 10 µg/ml): 77.07%
Tox/OD ([3]; 10 µg/ml): .413
overall efficacy ([4]; 70 mg/day dose for 7 consecutive days): moderately effective
No. of flukes extracted from liver of Treated Rabbits ([4]; individual rabbits No. 1-10, 35 mg morning and evening for 7 consecutive days, 4 weeks after infection): 3 (5×) and 4 (4×) and 2
Efficacy % ([4]; individual rabbits No. 1-10 versus untreated control, 35 mg morning and evening for 7 consecutive days): 50% (4×) and 40% (3×) and 42% (2×) and 60%
Efficacy %, Mean (means percentage of reduction) [4, 6]: 46.77%
No. of flukes extracted from liver of Treated Rabbits, Mean [4, 6]: 3.3
percentage of reduction, range ([4]; range over 10 rabbits, 70 mg/day for 7 consecutive days): 40-60%
concentration with significant effect (inhibition) ([5]; 72 hours): ≥ 0.6 mg/L
concentrations with complete inhibition of Toxoplasma growth ([5]; 72 hours): ≥ 2.5 mg/L
IC50 ([5]; Toxoplasma gondii, MRC5, 72 hours, estimated from regression analysis, read-out: 50% inhibitory concentration): 1.2 µg/mL (≈ 3.91 µM)
concentrations at which a marked inhibition of Toxoplasma growth could be observed ([5]; alteration of the parasitophorous vacuole, no marked alteration of the parasite itself): approximately 1.2 mg/L
microscopic examination of the monolayer ([5]; concentration of 1.25 mg/L): induced cytopathic effect on the parasitized cells, with enlargement of the parasitophorous vacuole and reduction of the number of the intra-celular parasites
